Results published in PubChem BioAssay (NCI).
Several values for one entry are separate records, joined by “and”; a condition that tells them apart may be missing. Identical values can stand only once.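 Interpolation was linear, between the two tested concentrations surrounding the appropriate level; five concentrations were tested over 48 hours in 96-well plates. Abbreviation: GI50, concentration required for 50% inhibition of growth. TGI denotes the concentration required for complete inhibition of growth.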

Experiments:
Experiment in all cases: NCI tumour cell line growth inhibition, 48 h
786-0 renal = system: 786-0 renal
CCRF-CEM leukemia = system: CCRF-CEM leukemia
EKVX NSCLC = system: EKVX NSCLC
HT29 colon = system: HT29 colon
LOX IMVI melanoma = system: LOX IMVI melanoma
MDA-MB-435 = system: MDA-MB-435
MOLT-4 leukemia = system: MOLT-4 leukemia
NCI-H23 lung = system: NCI-H23 lung
NCI/ADR-RES ovarian = system: NCI/ADR-RES ovarian
TK-10 renal = system: TK-10 renal

SMILES	GI50 (786-0 renal) [µM]	TGI (786-0 renal)	GI50 (CCRF-CEM leukemia) [µM]	TGI (CCRF-CEM leukemia) [µM]	GI50 (EKVX NSCLC) [µM]	TGI (EKVX NSCLC)	GI50 (HT29 colon) [µM]	TGI (HT29 colon) [µM]	GI50 (LOX IMVI melanoma) [µM]	TGI (LOX IMVI melanoma) [µM]	GI50 (MDA-MB-435) [µM]	TGI (MDA-MB-435) [µM]	GI50 (MOLT-4 leukemia) [µM]	TGI (MOLT-4 leukemia) [µM]	GI50 (NCI-H23 lung) [µM]	TGI (NCI-H23 lung)	GI50 (NCI/ADR-RES ovarian) [µM]	TGI (NCI/ADR-RES ovarian) [µM]	GI50 (TK-10 renal) [µM]	TGI (TK-10 renal) [µM]
CC1(C)N=c2cc3c(cc2N1c1ccc(Cl)cc1)=Nc1ccccc1N3c1ccc(Cl)cc1	9.66	> 100 µM	2.6	13.9	5.31	> 100 µM	7.85	> 100	5.44	24.8	12.1	> 100	1.53	4.04	3.16	27.9 µM	5.21	> 100	3.84	67
O=C1c2ccccc2C(=O)c2c1oc1c2c(=O)[nH]c2ccc(Cl)cc21	0.223	0.543 µM	0.403	4.66	0.249	2.44 µM	3.7	12.9	0.321	1.3	0.297	1.19	0.435	3.14	0.355	1.83 µM	0.354	1.77	0.379	1.1
O=C(Nc1cccc(C(F)(F)F)c1)c1ccc(NC2=C(Cl)C(=O)N(Cc3ccccc3)C2=O)cc1	12.1	24.5 µM	3.06	> 100	23.5	54.4 µM	13.6	52	2.45	6.6	6.92	20.5	1.27	10.3	4.13	13.4 µM	10.8	25.4	17.9	37.4
C=CCOc1ccc(N)c([N+](=O)[O-])c1		> 100 µM		> 100		> 100 µM		> 100		> 100		> 100		> 100		> 100 µM		> 100		> 100
Cc1cc(=O)oc2cc3oc(N(C)c4ccccc4)nc(=O)c3cc12		> 100 µM		> 100		> 100 µM		> 100		> 100		> 100		> 100		> 100 µM		> 100		> 100
CC[C@H]1CCC/C=C/[C@@H]2C[C@H](O)C[C@H]2[C@H](O)/C=C/C(=O)O1	0.0204	0.042 µM	0.0455	> 100	0.0522	> 100 µM	0.0264	0.405	0.0251	0.0793	0.0434	> 100	0.0354	> 100	0.0414	5.23 µM	0.0379	> 45.3	0.0355	0.568
COc1cc2c(/C=C3/C(=O)Nc4ccc(O)cc43)c(Cl)n(Cc3cc(OC)c(OC)c(OC)c3)c2cc1C	1.6	> 29.3 µM	1.38	10.9	2.69	> 38.5 µM	1.71	> 55.9	2.05	16.3	0.328		2.34	> 21.9	3.54	> 100 µM	3.41	> 100	3.25	> 24.6
CCc1cccc(NC(=O)Nc2ccc(Oc3ccc4nc(NC(=O)OC)[nH]c4c3)cc2)c1	7	> 25 µM	6.2	> 25	> 23.9	> 25 µM	2.04	> 13.4	3.77	> 17.3	0.0716	0.643	10.4	> 25	5.59	> 20.8 µM	10.5	> 25	6.61	> 19.8
Fc1ccc(-c2ncn(CCCN3CCOCC3)c2-c2ccncc2)cc1	> 25	> 25 µM	> 25	> 25	> 25	> 25 µM	> 25	> 25	> 25	> 25	> 25	> 25	> 25	> 25	> 25	> 25 µM	> 25	> 25	> 25	> 25
Cc1ccc(-c2nc(/C=N/Nc3cc(C)nc4ccc(Br)cc34)c(C)o2)cc1	1.86	3.67 µM	2.17	5.51	9.51	21.4 µM	1.92	3.82	1.88	3.57	1.72	3.12	2.32	5.13	2.09	4.75 µM	1.99	4.46	1.82	3.29
CC(C)=Cc1cccc2[nH]c(O)c(N=Nc3ccc(S(N)(=O)=O)cc3)c12	9.07	> 25 µM	1.23	> 25	> 25	> 25 µM	3.36	> 25	2.67	> 25	> 21.4	> 25	1.74	> 25	7.25	> 25 µM	> 23.4	> 25	2.29	> 25
COc1ccccc1NC(=O)CC(=O)n1nc(C)c(N=Nc2ccccc2Cl)c1C		> 100 µM		> 100		> 100 µM		> 100		> 100		> 100		> 100		> 44.7 µM		> 100		> 100
COc1cc2c(c(OC)c1OC)-c1c(c3ccc([N+](=O)[O-])cc3c(=O)n1CCCBr)C2=O	35.1	> 100 µM	14.8	> 100	> 100	> 100 µM	> 100	> 100	31.9	> 100	> 100	> 100	15.2	> 100	68.9	> 100 µM	70.6	> 100	23.5	90.2
CN[C@@H](Cc1cccc2ccccc12)C(=O)N[C@@H](CC(C)C)B(O)O	0.037	0.18 µM and 0.0671 µM		0.0354	0.0277	0.209 µM and 0.0476 µM		0.025	0.0135	0.0324	0.00425	0.0147		0.0466	0.016	0.0387 µM and < 0.0114 µM	0.0412	0.197	0.0256	0.0821
